Assay results: ChEMBL document CHEMBL3739285, “Fluorescent sulfonamide carbonic anhydrase inhibitors incorporating 1,2,3-triazole moieties: Kinetic and X-ray crystallographic studies” (Bioorg Med Chem, 2016)
In brackets after ≈: the same amount, converted by molar mass.

Legend:
Carbonic anhydrase 2 = Carbonic anhydrase 2 (Homo sapiens, UniProt P00918); test: Inhibition of human carbonic anhydrase-2 preincubated for 15 mins by stopped flow CO2 dehydration method
Carbonic anhydrase 14 = Carbonic anhydrase 14 (Homo sapiens, UniProt Q9ULX7)
Sequence of Carbonic anhydrase 14 (Q9ULX7 whole entry): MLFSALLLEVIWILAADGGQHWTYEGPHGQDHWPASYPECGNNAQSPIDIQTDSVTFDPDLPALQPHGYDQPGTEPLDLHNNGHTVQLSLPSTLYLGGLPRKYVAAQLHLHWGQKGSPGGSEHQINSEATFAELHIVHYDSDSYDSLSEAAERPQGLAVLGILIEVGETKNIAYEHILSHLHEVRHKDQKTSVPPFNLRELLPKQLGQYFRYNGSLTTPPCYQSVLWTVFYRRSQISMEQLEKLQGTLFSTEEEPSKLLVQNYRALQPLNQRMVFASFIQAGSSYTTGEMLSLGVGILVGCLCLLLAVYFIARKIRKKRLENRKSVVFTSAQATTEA
Description: Inhibition of human carbonic anhydrase-14 preincubated for 15 mins by stopped flow CO2 dehydration method

Homo sapiens = organism: Homo sapiens; test: Selectivity ratio of Ki for human carbonic anhydrase-9 to Ki for human carbonic anhydrase-2
Carbonic anhydrase 12 = Carbonic anhydrase 12 (Homo sapiens, UniProt O43570); test: Inhibition of human carbonic anhydrase-12 preincubated for 15 mins by stopped flow CO2 dehydration method
Sequence of Carbonic anhydrase 12 (O43570 whole entry): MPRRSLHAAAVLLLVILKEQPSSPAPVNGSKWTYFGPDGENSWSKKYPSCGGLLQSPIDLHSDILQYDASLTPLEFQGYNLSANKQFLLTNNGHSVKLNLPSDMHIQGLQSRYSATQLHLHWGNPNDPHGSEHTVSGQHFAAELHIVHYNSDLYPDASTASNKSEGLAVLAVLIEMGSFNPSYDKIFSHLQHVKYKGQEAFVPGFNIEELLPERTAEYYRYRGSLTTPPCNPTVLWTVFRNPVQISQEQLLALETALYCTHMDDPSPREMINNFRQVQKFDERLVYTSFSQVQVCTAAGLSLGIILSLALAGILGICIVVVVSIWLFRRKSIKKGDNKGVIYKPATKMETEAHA

Carbonic anhydrase 9 = Carbonic anhydrase 9 (Homo sapiens, UniProt Q16790)
Description: Inhibition of human carbonic anhydrase-9 preincubated for 15 mins by stopped flow CO2 dehydration method

Carbonic anhydrase 1 = Carbonic anhydrase 1 (Homo sapiens, UniProt P00915); test: Inhibition of human carbonic anhydrase-1 preincubated for 15 mins by stopped flow CO2 dehydration method
Sequence of Carbonic anhydrase 1 (P00915 whole entry): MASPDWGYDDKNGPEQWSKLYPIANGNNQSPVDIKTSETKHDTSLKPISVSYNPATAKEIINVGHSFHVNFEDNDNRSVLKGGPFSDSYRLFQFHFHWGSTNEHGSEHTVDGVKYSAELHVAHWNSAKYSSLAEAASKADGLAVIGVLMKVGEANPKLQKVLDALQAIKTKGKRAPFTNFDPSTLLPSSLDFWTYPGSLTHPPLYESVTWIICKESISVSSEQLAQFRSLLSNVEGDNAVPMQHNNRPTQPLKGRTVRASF

[1] = Solubility of the compound in phosphate buffer at pH 7.4; type: physicochemical

| Structure (SMILES) | Ki (Carbonic anhydrase 2) | Ki (Carbonic anhydrase 14) | Ratio Ki (Homo sapiens) | Ki (Carbonic anhydrase 12) | Ki (Carbonic anhydrase 9) | Ki (Carbonic anhydrase 1) | solubility [1] |
| --- | --- | --- | --- | --- | --- | --- | --- |
| CN(C)c1ccc2c(-c3ccc(NC(=S)NCc4cn(-c5cccc(S(N)(=O)=O)c5)nn4)cc3C(=O)O)c3ccc(=[N+](C)C)cc-3oc2c1 | 88 nM | 31.4 nM | 3.62 | 10.7 nM | 24.3 nM | 6420 nM |  |
| NS(=O)(=O)c1ccc(CCNC(=S)Nc2ccc(-c3c4ccc(=O)cc-4oc4cc(O)ccc34)c(C(=O)O)c2)cc1 |  | 33 nM |  |  |  |  |  |
| NS(=O)(=O)c1ccc(-n2cc(CNC(=S)Nc3ccc(-c4c5ccc(=O)cc-5oc5cc(O)ccc45)c(C(=O)O)c3)nn2)cc1 | 36 nM |  |  | 4.1 nM | 8.1 nM | 2560 nM | 3800 µg/mL (≈ 5.91 mM) |
| NS(=O)(=O)c1cccc(-n2cc(CNC(=S)Nc3ccc(-c4c5ccc(=O)cc-5oc5cc(O)ccc45)c(C(=O)O)c3)nn2)c1 | 127 nM |  |  | 20.5 nM | 36.9 nM | 7630 nM |  |
| NS(=O)(=O)c1ccc(CNC(=S)Nc2ccc(-c3c4ccc(=O)cc-4oc4cc(O)ccc34)c(C(=O)O)c2)cc1 |  | 41 nM |  | 7 nM |  |  | 1200 µg/mL (≈ 2.08 mM) |
